Data set [1] concerns SVMP activity of Echis ocellatus venom. Put plainly: SVMP fluorogenic substrate assay, E. ocellatus venom. The data set is classed as biochemical. Particulars: for activity at the top dose tested: top 10 µM dose, negative control drugs; for pEC50: E. ocellatus venom, 20-min endpoint, N/A = did not cross 50% inhibition at any dose, read-out: EC50, known inhibitors validation screen.
Protocol: (§1) Daughter plates and assay-ready plates were stored at −20°C, with the latter used within a month of creation. For SVMP assay-ready plates, 0.91 µL of each drug from the respective daughter plate was plated, such that in the final assay volume of 91 μL, a final concentration of 10 µM was reached. […] In secondary screening, dose response curves were created, with a top final assay concentration of 10 µM and reaching sub-nanomolar concentrations (concentration range was dependent on specific plate layout), with each concentration tested in duplicate.
(§2) The SVMP activity of crude venom in the presence of inhibitors or vehicle control (DMSO) was measured using a quenched fluorogenic substrate (substrate for MMPs, ADAMs and Cathepsins, Cat no: ES010, Bio-Techne). […] Reactions consisted of 1 µg of venom in 15 µL PBS co-incubated with 0.91 µL of inhibitor at a concentration of 1 mM. […] The plates were read on a CLARIOstar microplate reader (BMG Labtech), at an excitation wavelength of 320–10 nm and emission wavelength of 420–10 nm with 10 flashes per well at 25°C, at a pre-defined end read time. The end-read times were selected independently for each venom, as the plateau point for the venom + vehicle control (maximum fluorescence) identified in an initial 1-h kinetic read.
(§3) The SVMP activity for the end-read data was calculated for each test condition as a percentage of the mean of the venom + vehicle wells (100% activity), with a baseline of the marimastat 10 µM controls representing 0% activity (Supplementary Equation S1).

On the set-up of data set [2]: method as in MedChemExpress. Particulars: ref MedChemExpress; cited from earlier work.
The test system of data set [3] is SVMP activity of Crotalus atrox venom. Put plainly: SVMP fluorogenic substrate assay, C. atrox venom. To be noted: read-out: EC50, known inhibitors validation screen, 30-min endpoint.
Protocol: as §1, §2, §3
Data set [4] concerns SVMP activity of Bitis arietans venom. The data set is described as follows: SVMP fluorogenic substrate assay, B. arietans venom. The format is biochemical. Particulars: 40-min endpoint, read-out: EC50, known inhibitors validation screen.
Protocol: as §1, §2, §3
Data set [5] concerns SVMP activity of Bothrops jararaca venom. Put plainly: SVMP fluorogenic substrate assay, B. jararaca venom. The format is biochemical. Particulars: 30-min endpoint, read-out: EC50, known inhibitors validation screen.
Protocol: as §1, §2, §3
Data set [6] concerns SVMP activity of Calloselasma rhodostoma venom. Put plainly: SVMP fluorogenic substrate assay, C. rhodostoma venom. The format is biochemical. To be noted: 20-min endpoint, read-out: EC50, known inhibitors validation screen.
Protocol: as §1, §2, §3
Data set [7] concerns SVMP activity of five viper venoms. The data set is described as follows: SVMP fluorogenic substrate assay, summary across the panel of five viper venoms. The data set is classed as biochemical. To be noted: for pEC50: five venoms.
Protocol: as §1, §2, §3
The next data set has as its system 5-HT2A. Further details: method as in MedChemExpress. To be noted: IP accumulation assays; ref MedChemExpress; read-out: IC50, 5-HT2A inverse agonist; cited from earlier work.
Another data set deals with 5-HT2B. Also noted: method as in MedChemExpress. To be noted: IP accumulation assays; ref MedChemExpress; read-out: IC50, 5-HT2B inverse agonist; cited from earlier work.
A further data set relates to 5-HT2C. Also noted: method as in MedChemExpress. To be noted: IP accumulation assays; ref MedChemExpress; read-out: IC50, 5-HT2C partial inverse agonist; cited from earlier work.
Data set [8] deals with patients. Also noted: method as in Bissett et al., 2005. To be noted: ref Bissett et al., 2005, cited from earlier work.
For data set [9], the system named is patients. Also noted: method as in Conatus Pharmaceuticals Inc, 2012. Particulars: 30 mg per day for up to 24 weeks; ref Conatus Pharmaceuticals Inc, 2012; cited from earlier work.
On the set-up of data set [10]: method as in Williams et al., 2011b. Particulars: ref Williams et al., 2011b; cited from earlier work.
Another data set has as its target 5 alpha Reductase. Further details: method as in MedChemExpress. To be noted: benign prostatic hyperplasia, ref MedChemExpress, cited from earlier work.
The mark [11] stands for this setting: validation screen, read-out: EC50 range across all venoms, known inhibitors.
The mark [12] stands for this setting: validation screen, read-out: average EC50 across all venoms.
The mark [13] stands for this setting: read-out: EC50 against each of the venoms, secondary screen.

pEC50, pIC50, pKi: −log10 of the molar value. Values after ≈ are worked out from the molar mass of the structure shown. Values joined by “and” are separate entries in the source; they are usually repeats but may differ in a detail not shown here. Equal values may be shown once. Where a name gives a salt, the structure may show the parent alone. Read-outs that look alike come from different tables or passages of the source.

Consider `CS(=O)(=O)O.N=C(N)c1ccc2cc(OC(=O)c3ccc(N=C(N)N)cc3)ccc2c1` [nafamostat, (6-Carbamimidoylnaphthalen-2-yl)4-(diaminomethylideneamino)benzoate methanesulfonic acid], for which the “activity at the top dose tested” value in data set [1] is recorded as “no activity”.

Take `C[C@]12C=CC(=O)N[C@@H]1CC[C@@H]1[C@@H]2CC[C@]2(C)[C@@H](C(=O)Nc3cc(C(F)(F)F)ccc3C(F)(F)F)CC[C@@H]12` [Dutasteride]: in data set [2], the “Solubility in DMSO” value is reported as 63.06 mM (≈ 33.3 mg/mL).

For orientation: pEC50 means the EC50 on a negative log10 scale, so that one unit is a factor of ten. In the case of `O=S(=O)(O)CC(S)CS` (stereo not shown) [DMPS, 2,3-dimercapto-1-propane-sulfonic acid sodium salt monohydrate], the pEC50 was 5.49 in data set [3]; 5.92 in data set [4]; 6.28 in data set [5]; 6.02 in [1]; 5.28 in data set [6]; 5.28 to 6.28 in data set [7] (setting [11]). For the same compound, the pEC50 in data set [7] (setting [12]) is 5.65.

Consider `CCc1c(C(=O)C(N)=O)c2c(OCC(=O)O)cccc2n1Cc1ccccc1` [varespladib, 2-[[3-(2-Amino-2-oxoacetyl)-2-ethyl-1-(phenylmethyl)-1H-indol-4-yl]oxy]-acetic acid], for which the “activity at the top dose tested” value in [1] is on record as “no activity”.

For `O=C(/C=C/c1cccc(S(=O)(=O)Nc2ccccc2)c1)NO` [belinostat], the pEC50 in data set [7] (setting [13]) was less than 6.00.

Turning to `CNC(=O)[C@@H](NC(=O)[C@H](CC(C)C)[C@H](O)C(=O)NO)C(C)(C)C` [marimastat, (2S,3R)-N4-[(1S)-2,2-Dimethyl-1-[(methylamino)carbonyl]propyl]-N1,2-dihydroxy-3-(2-methylpropyl)butanediamide], the pEC50 in [3] is 7.92; in data set [4] it was 8.63; in data set [5] it was 8.13; in [1] it was 8.30; in [6], 7.56.

Consider `S=C(N/N=C1\CCCc2cccnc21)N1CCN(c2ccccn2)CC1` [COTI-2], for which, in data set [7] (across all venoms, secondary screen), the “fold superiority of EC50 to dimercaprol” value was greater than 2 fold. In addition, the pEC50 in data set [7] (read-out: EC50 range across all venoms, secondary screen) is 6.19 to 6.73.

As for `CNC(=O)[C@H](Cc1ccccc1)NC(=O)[C@H](CC(C)C)[C@H](CSc1cccs1)C(=O)NO` [batimastat, (2R,3S)-N4-Hydroxy-N1-[(1S)-2-(methylamino)-2-oxo-1-(phenylmethyl)ethyl]-2-(2-methylpropyl)-3-[(2-thienylthio)methyl]butanediamide], the pEC50 in [3] is 7.81; in data set [4], 8.60; in data set [5] it was 8.25; in [1] it was 8.21; in data set [6], 7.38.

The term pIC50 denotes −log10 of the IC50, conventionally taken in molar units. For `COc1ccc(NC(=O)Nc2ccc(F)cc2F)cc1-c1c(Br)cnn1C` [Nelotanserin], the pIC50 is 8.77 with 5-HT2A, 6.10 with 5-HT2B and 7.10 in the data set on 5-HT2C. Besides, in data set [2], the “Solubility in DMSO” value is ≥ 32 mg/mL and ≥ 73.19 mM.

As to `CC1(C)SCCN(S(=O)(=O)c2ccc(Oc3ccncc3)cc2)[C@H]1C(=O)NO` [prinomastat, prinomastat hydrochloride], the pEC50 is 7.70 in data set [3]; 8.62 in data set [4]; 8.02 in data set [5]; 8.36 in data set [1]; 7.44 in data set [6]. Further, the “toxicity observed in Phase III trials” value with patients [8] (15 mg bi-daily dosing for 3–36 months) is reported as “musculoskeletal toxicity was observed in a significant proportion of patients”. Further, the “thromboembolic risk in Phase III trials” value in the data set with patients [8] (cancer patients receiving combination chemotherapy) is on record as “increased risk of venous thromboembolic disease”.

For `O=C(NO)C1(CS(=O)(=O)c2ccc(Oc3ccc(Cl)cc3)cc2)CCOCC1` [CTS-1027], the “adverse events in Phase II trials” value in the data set on patients [9] is recorded as “a range of serious adverse events”.

The term aqueous solubility denotes the dissolved amount per volume that the medium holds. In the case of `COCCOC(=O)N1CCN(S(=O)(=O)c2cc(F)c(Oc3ccc(Cl)cc3)c(F)c2)C(C(=O)NO)C1` (stereo not shown) [XL-784], the aqueous solubility in data set [10] was 20 µg/mL (≈ 36.4 µM).

In the case of `NS(=O)(=O)c1cc2c(cc1Cl)N=CNS2(=O)=O` [chlorothiazide], the pEC50 in [7] (setting [13]) is less than 6.00.

As for `OCC(S)CS` (stereo not shown) [dimercaprol, 2,3-dimercapto-1-propanol], the pEC50 in data set [3] is 5.31; in [4] it was 5.64; in data set [5] it was 6.25; in data set [1], 5.95; in data set [6], 5.16; in [7] (setting [11]), 5.16 to 6.25. Besides, the pEC50 in [7] (setting [12]) was 5.50.

As for `OCCN1C[C@H](O)[C@@H](O)[C@H](O)[C@H]1CO` [miglitol], in data set [7] (setting [13]), the negative logarithm of the EC50 (pEC50) is less than 6.00.

What is called pKi is the Ki on a negative log10 scale, so that one unit is a factor of ten. Regarding `CC(C)(C)NC(=O)[C@H]1CC[C@H]2[C@@H]3CC[C@H]4NC(=O)C=C[C@]4(C)[C@H]3CC[C@]12C` [Finasteride], the pKi at 5 alpha Reductase (epithelium, read-out: Ki, 5alpha-reductase activity in epithelium) was 8.00; at 5 alpha Reductase (stroma, read-out: Ki, 5alpha-reductase activity in stroma), 7.48. In addition, the “Solubility in DMSO” value in [2] was 150 mg/mL and 402.64 mM.

As for `Cn1c(=O)cc(N2CCC[C@@H](N)C2)n(Cc2cc(F)ccc2C#N)c1=O` [trelagliptin (succinate), trelagliptin], the negative logarithm of the EC50 (pEC50) in data set [7] (setting [13]) is less than 6.00.

The values above are taken from paper PMC10808794, “Snakebite drug discovery: high-throughput screening to identify novel snake venom metalloproteinase toxin inhibitors” (Frontiers in Pharmacology, 2024).
